The supplement of paper PMC10307832

Columns and labels:
Assay in all cases: relative viability (nuclei count vs DMSO), 5 days (fraction); higher = more cells survive
[1] = compound: C1CNCCC1C2=CC(=NN2)C3=CC=NC=C3
Summary of the method: (§1)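 Nuclei counted with MetaXpress define viability as the ratio of treated to vehicle wells, given as a median across plates. The lung cancer cell lines were in 1536-well plates, pinned with five √10-spaced library-drug doses and imaged at 4× after 5 days and Hoechst staining. Plates passed with control CV below 25% and at least one doubling.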

[2] = compound: C[C@@H](N)c1ccc(C(=O)Nc2ccnc3[nH]ccc23)cc1
Summary of the method: as §1

[3] = compound: O[C@H]1CC[C@H](Nc2ncc3nc(Nc4c(F)cc(F)cc4F)n([C@H]4CCOC4)c3n2)CC1 [Tanzisertib]
Summary of the method: as §1

[4] = compound: C[C@@H](N)c1ccc(C(=O)Nc2ccnc3[nH]ccc23)cc1 + Cc1nc(Nc2ncc(C(=O)Nc3c(C)cccc3Cl)s2)cc(N2CCN(CCO)CC2)n1 [Dasatinib] (partner 0.075 µM)
Summary of the method: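 Dosing by pin tool came one day after lung cancer cell lines were seeded in 1536-well plates, using either one drug or a fixed anchor-drug dose plus five library-drug doses (not always all listed) in √10 steps. After 5 days, nuclei were counted on 4× images. Relative viability is treated-well nuclei count divided by vehicle-well nuclei count, and values are medians of duplicate plates.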

Row | Cell Line | relative viability ([1]; 0.08 µM) | relative viability ([1]; 0.8 µM) | relative viability ([1]; 2.53 µM) | relative viability ([1]; 8 µM) | relative viability ([2]; 0.04 µM) | relative viability ([2]; 0.1265 µM) | relative viability ([2]; 0.4 µM) | relative viability ([2]; 1.265 µM) | relative viability ([2]; 4 µM) | relative viability ([3]; 0.08 µM) | relative viability ([3]; 0.253 µM) | relative viability ([3]; 0.8 µM) | relative viability ([3]; 2.53 µM) | relative viability ([3]; 8 µM) | relative viability ([4]; first compound 0.04 µM) | relative viability ([4]; first compound 0.1265 µM) | relative viability ([4]; first compound 0.4 µM) | relative viability ([4]; first compound 1.265 µM) | relative viability ([4]; first compound 4 µM)
1 | 201T | 0.97 | 0.993 | 0.983 | 0.938 | 1.01 | 0.971 | 1.01 | 0.976 | 1.12 | 1 | 0.969 | 0.997 | 0.933 | 0.898 | 0.667 | 0.635 | 0.674 | 0.738 | 0.808
2 | A549 | 0.872 | 1.03 | 1.07 | 1.05 | 1.02 | 1.03 | 1.19 | 0.944 | 0.829 | 1 | 0.99 | 0.976 | 1 | 0.856 | – | – | – | – | –
3 | A-427 | 0.953 | 1.05 | 0.984 | 1.05 | 0.862 | 1.07 | 0.975 | – | 0.906 | 0.997 | 0.998 | 1.07 | 1.08 | 0.789 | 0.483 | 0.666 | 0.707 | – | 0.506
4 | ABC-1 | 0.975 | 0.817 | 1.07 | 1.02 | 0.767 | 1.07 | 0.918 | 0.579 | 0.901 | 1.03 | 0.995 | 0.882 | 1 | 0.957 | 0.577 | 0.552 | 0.648 | 0.507 | 0.445
5 | BEN | 0.825 | 0.888 | 0.984 | 1.04 | 0.927 | 0.954 | 1.04 | 1.01 | 0.718 | 0.977 | 1.01 | 0.997 | 1.08 | 0.832 | 0.245 | 0.252 | 0.396 | 0.319 | 0.265
6 | CAL-12T | 1.01 | 1.18 | 1.08 | 0.99 | 1.11 | 1.04 | 1.23 | 0.945 | 0.839 | 1.03 | 1.09 | 1.08 | 1.05 | 1.03 | 0.52 | 0.524 | 0.461 | 0.316 | 0.338
7 | COR-L23 | 1.02 | 1.19 | 0.991 | 0.982 | 0.913 | 1.17 | 0.941 | 0.878 | 0.646 | 1.06 | 1.04 | 1.07 | 1.06 | 1.04 | 0.44 | 0.511 | 0.466 | 0.424 | 0.266
8 | COR-L 105 | 0.857 | 0.925 | 1.02 | 0.923 | 0.91 | 0.964 | 1.11 | 0.7 | 0.735 | 1.08 | 0.899 | 0.918 | 1.15 | 0.706 | 0.247 | 0.317 | 0.372 | 0.241 | 0.216
9 | Calu-6 | 0.964 | 1.02 | 1.01 | 0.998 | 1.02 | 1.03 | 1.03 | 0.935 | 0.826 | 1.01 | 1.01 | 1.01 | 1.01 | 0.931 | – | – | – | – | –
